In the Kinase Knowledgebase extract (Sharma et al. 2016) one finds IC50 data, which are given here for 37 molecules.

What all share (assay): Enzyme Assay
The target in assay [1] is PIK3CA (human) (UniProt P42336).
Assay [2] addresses PIK3CG (human) (UniProt P48736).
Assay [3] deals with PIK3CB (Human) (UniProt P42338).
Assay [4] concerns the target PIK3CD (Human) (UniProt O00329).

Chain of PIK3CG (human) (P48736 whole entry, looked up): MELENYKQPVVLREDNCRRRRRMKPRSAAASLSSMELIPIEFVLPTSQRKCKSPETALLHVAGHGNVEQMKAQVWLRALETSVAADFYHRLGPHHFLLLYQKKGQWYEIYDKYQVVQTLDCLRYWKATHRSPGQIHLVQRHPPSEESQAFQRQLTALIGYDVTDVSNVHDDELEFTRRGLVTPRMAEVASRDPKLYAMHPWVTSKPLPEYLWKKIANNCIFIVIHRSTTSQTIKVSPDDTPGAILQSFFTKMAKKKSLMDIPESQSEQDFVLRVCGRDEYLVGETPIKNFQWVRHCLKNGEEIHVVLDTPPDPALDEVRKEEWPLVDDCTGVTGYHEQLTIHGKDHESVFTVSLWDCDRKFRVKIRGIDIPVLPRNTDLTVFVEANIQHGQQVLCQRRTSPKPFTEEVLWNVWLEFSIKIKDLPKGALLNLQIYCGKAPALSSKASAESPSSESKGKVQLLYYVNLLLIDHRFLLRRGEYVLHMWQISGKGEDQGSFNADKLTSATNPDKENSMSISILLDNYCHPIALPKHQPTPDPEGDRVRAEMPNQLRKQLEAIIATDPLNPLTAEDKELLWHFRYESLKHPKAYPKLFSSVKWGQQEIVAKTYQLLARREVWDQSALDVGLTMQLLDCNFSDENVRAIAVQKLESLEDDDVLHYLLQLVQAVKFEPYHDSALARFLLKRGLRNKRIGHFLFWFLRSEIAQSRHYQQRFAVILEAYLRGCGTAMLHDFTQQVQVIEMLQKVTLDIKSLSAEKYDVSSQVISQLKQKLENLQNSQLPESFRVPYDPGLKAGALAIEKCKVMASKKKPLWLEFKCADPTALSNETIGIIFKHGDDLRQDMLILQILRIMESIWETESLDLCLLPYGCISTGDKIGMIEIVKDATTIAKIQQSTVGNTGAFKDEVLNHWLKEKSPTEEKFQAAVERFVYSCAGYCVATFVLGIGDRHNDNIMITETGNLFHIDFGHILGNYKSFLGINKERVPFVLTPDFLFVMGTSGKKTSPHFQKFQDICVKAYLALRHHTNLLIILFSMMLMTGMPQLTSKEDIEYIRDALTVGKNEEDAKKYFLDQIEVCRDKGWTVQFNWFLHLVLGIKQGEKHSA
Chain of PIK3CD (Human) (O00329 whole entry, looked up): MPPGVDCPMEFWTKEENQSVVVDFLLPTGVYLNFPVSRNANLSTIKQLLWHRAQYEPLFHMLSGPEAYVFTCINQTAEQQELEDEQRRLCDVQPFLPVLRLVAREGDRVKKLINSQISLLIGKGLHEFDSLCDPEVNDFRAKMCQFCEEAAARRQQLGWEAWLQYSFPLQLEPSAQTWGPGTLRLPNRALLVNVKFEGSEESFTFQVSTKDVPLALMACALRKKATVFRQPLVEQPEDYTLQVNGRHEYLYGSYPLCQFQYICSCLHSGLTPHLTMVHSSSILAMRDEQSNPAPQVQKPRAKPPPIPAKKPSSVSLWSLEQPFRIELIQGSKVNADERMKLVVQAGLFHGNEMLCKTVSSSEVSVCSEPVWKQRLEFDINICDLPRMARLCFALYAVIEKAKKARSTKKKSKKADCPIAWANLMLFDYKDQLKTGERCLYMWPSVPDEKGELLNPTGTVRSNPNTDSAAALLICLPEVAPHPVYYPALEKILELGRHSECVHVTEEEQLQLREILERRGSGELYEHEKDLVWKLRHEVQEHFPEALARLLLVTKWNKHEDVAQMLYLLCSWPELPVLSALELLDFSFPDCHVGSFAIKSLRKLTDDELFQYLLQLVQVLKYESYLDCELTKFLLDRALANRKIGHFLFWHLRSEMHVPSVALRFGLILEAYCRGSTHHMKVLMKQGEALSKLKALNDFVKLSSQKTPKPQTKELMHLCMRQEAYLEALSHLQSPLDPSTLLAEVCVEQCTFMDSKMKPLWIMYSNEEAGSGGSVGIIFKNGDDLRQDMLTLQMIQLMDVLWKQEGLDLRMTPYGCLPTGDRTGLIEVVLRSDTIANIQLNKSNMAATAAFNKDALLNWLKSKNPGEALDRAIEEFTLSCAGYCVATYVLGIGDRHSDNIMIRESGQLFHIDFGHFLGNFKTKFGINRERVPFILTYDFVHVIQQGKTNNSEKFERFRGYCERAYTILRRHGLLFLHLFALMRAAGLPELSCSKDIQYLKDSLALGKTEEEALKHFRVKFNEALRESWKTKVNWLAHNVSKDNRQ
Chain of PIK3CB (Human) (P42338 whole entry, looked up): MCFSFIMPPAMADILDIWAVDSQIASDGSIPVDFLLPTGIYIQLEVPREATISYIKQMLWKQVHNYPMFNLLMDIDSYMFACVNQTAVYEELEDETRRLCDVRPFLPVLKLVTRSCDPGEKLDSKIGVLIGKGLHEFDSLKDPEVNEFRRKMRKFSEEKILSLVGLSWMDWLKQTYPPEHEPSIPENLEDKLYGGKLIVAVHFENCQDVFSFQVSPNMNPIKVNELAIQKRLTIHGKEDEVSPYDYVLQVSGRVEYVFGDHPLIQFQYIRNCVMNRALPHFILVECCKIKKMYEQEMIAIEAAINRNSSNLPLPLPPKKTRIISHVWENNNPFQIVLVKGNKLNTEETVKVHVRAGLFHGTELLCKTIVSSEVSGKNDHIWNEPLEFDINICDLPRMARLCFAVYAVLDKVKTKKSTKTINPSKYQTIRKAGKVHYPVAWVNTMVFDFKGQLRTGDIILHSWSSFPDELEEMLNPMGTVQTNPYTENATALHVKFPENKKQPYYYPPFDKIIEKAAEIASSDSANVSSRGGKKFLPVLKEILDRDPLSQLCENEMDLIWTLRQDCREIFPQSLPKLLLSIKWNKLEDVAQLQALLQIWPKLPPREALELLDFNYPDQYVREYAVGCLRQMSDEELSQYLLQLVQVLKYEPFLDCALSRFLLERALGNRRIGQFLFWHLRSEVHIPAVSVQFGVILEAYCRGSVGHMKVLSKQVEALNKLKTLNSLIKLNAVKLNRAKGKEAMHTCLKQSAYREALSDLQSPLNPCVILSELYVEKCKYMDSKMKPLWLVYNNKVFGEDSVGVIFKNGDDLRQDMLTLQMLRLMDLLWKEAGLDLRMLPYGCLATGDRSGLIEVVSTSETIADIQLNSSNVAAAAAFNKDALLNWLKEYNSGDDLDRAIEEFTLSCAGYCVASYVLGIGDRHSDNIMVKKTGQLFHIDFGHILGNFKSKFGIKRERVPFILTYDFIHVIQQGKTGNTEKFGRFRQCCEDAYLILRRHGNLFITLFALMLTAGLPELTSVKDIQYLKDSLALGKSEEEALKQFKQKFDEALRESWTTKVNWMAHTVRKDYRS
Chain of PIK3CA (human) (P42336 whole entry, looked up): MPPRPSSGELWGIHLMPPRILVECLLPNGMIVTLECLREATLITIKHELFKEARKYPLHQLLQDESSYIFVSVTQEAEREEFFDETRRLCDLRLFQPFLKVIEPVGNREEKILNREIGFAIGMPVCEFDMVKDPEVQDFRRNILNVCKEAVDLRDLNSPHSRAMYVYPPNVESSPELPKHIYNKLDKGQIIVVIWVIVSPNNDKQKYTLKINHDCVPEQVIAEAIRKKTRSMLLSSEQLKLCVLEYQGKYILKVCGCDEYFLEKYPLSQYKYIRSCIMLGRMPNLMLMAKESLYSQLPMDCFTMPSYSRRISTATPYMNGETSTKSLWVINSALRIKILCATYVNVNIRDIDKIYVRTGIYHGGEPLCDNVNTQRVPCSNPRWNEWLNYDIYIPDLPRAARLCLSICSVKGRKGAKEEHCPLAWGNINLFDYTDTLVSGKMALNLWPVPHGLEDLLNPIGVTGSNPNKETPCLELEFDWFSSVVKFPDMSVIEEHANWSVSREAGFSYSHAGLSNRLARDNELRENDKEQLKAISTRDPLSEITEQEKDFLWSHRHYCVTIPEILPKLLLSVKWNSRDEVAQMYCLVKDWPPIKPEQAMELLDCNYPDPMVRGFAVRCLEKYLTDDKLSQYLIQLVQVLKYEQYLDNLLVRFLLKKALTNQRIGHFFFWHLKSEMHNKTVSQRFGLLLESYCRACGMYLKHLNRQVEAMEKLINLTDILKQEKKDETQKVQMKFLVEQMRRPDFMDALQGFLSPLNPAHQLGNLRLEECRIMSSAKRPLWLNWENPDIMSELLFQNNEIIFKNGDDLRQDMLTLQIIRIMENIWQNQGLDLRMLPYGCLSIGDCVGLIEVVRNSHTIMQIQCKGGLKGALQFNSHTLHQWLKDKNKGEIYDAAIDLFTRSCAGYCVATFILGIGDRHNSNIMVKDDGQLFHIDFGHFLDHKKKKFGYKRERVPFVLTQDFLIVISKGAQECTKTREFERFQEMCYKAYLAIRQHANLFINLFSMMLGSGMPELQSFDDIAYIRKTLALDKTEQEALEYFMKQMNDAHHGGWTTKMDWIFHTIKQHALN

Usually IC50 stands for the midpoint of a concentration-inhibition curve. High values mean weaker potency, low ones greater potency. With `Cc1ccccc1-n1c(Cn2nc(C#CCO)c3c(N)ncnc32)cc2cccc(C)c2c1=O`, the IC50 is more than 10 µM in assay [1], 100 to 1000 nM in assay [2] and more than 10 µM in assay [3].
For `Cc1cccc(C)c1-n1c(CNc2ncnc3[nH]cnc23)cc2cccc(C)c2c1=O`, the IC50 in assay [1] was more than 10 µM; in assay [2], 100 to 1000 nM; in assay [4], less than 100 nM; in assay [3], more than 10 µM.
For the molecule `Cc1cccc2cc(Cn3nc(-c4cn[nH]c4)c4c(N)ncnc43)n(-c3cccc(F)c3)c(=O)c12`, the figures for the 50% inhibitory concentration (IC50) in assay [1], in assay [2] and in assay [3] were more than 10 µM, 100 to 1000 nM and more than 10 µM, respectively.
Regarding `Cc1cccc2cc([C@H](C)Nc3nc(N)ncc3F)n(-c3ccccc3)c(=O)c12`, the IC50 in assay [1] was more than 10 µM; in assay [2], 100 to 1000 nM; in assay [4], less than 100 nM; in assay [3] it was more than 10 µM.
For `Cc1cccc2cc([C@H](C)Nc3cc(N)nc(N)n3)n(-c3ccccc3)c(=O)c12`, the IC50 in assay [1] is more than 10 µM; in assay [2], 100 to 1000 nM; in assay [4], 100 to 1000 nM; in assay [3], more than 10 µM.
Consider `Cc1cccc2cc(Cn3nc(-c4cccc(O)c4)c4c(N)ncnc43)n(-c3ccccc3F)c(=O)c12`, for which the figures for the IC50 in assay [1], in assay [2] and in assay [3] were more than 10 µM, 100 to 1000 nM and more than 10 µM, respectively.
For the molecule `Cc1cccc2cc([C@H](C)Nc3nc(F)nc4[nH]cnc34)n(C3CC3)c(=O)c12`, the values for the IC50 in assay [2], in assay [4] and in assay [3] were 100 to 1000 nM, less than 100 nM and less than 0.1 µM, respectively.
As to `Cc1ccccc1-n1c(Cn2nc(C#CC3CC3)c3c(N)ncnc32)cc2cccc(C)c2c1=O`, the concentration for half-maximal inhibition (IC50) was more than 10 µM in assay [1], 100 to 1000 nM in assay [2], 100 to 1000 nM in assay [4] and more than 10 µM in assay [3].
Take `C=Cc1nn(Cc2cc3cccc(C)c3c(=O)n2-c2ccccc2C)c2ncnc(N)c12`: the results for the IC50 in assay [1], in assay [2] and in assay [3] were more than 10 µM, 100 to 1000 nM and more than 10 µM, respectively.
As for `Cc1cccc2cc(Cn3nc(I)c4c(N)ncnc43)n(-c3ccccc3OCCN3CCOCC3)c(=O)c12`, the figures for the IC50 in assay [1], in assay [2] and in assay [3] were more than 10 µM, 100 to 1000 nM and more than 10 µM, respectively.
`Cc1cccc2cc(Cn3nc(-c4cn[nH]c4)c4c(N)ncnc43)n(-c3ccccc3Cl)c(=O)c12`: the results for the IC50 in assay [1], in assay [2] and in assay [3] were more than 10 µM, 100 to 1000 nM and more than 10 µM, respectively.
With `Cc1ccccc1-n1c(Cn2nc(-c3cccc(F)c3)c3c(N)ncnc32)cc2cccc(C)c2c1=O`, the IC50 in assay [1] is more than 10 µM; in assay [2], 100 to 1000 nM; in assay [3], more than 10 µM.
Turning to `Cc1cccc2cc([C@H](C)Nc3ncnc4[nH]nc(Cl)c34)n(C3CC3)c(=O)c12`, the IC50 in assay [1] is more than 10 µM; in assay [2] it was 100 to 1000 nM; in assay [4] it was less than 100 nM; in assay [3] it was 0.1 to 1 µM.
`Cc1cccc2cc(Cn3nc(C=C4CCNC4=O)c4c(N)ncnc43)n(-c3ccccc3F)c(=O)c12`: the values for the IC50 in assay [1], in assay [2] and in assay [3] were more than 10 µM, more than 10000 nM and more than 10 µM, respectively.
Regarding `Cc1cccc2cc([C@H](C)Nc3nc(N)ncc3Cl)n(C3CC3)c(=O)c12`, the IC50 in assay [1] was more than 10 µM; in assay [2] it was 100 to 1000 nM; in assay [4], less than 100 nM; in assay [3], 0.1 to 1 µM.
The like results for `Cc1cccc2cc([C@H](C)Nc3nc(Cl)nc4[nH]cnc34)n(C3CC3)c(=O)c12` were, in that order, more than 10 µM, 100 to 1000 nM, less than 100 nM and less than 0.1 µM.
On to `COc1ccccc1-n1c(Cn2nc(I)c3c(N)ncnc32)cc2cccc(C)c2c1=O`, for which the IC50 in assay [1] is more than 10 µM; in assay [2], 100 to 1000 nM; in assay [3], more than 10 µM.
As for `Cc1cccc2cc(Cn3nc(-c4cccc(O)c4)c4c(N)ncnc43)n(-c3ccccc3OCCN3CCOCC3)c(=O)c12`, the IC50 in assay [1] is more than 10 µM; in assay [2] it was 100 to 1000 nM; in assay [3] it was more than 10 µM.
`Cc1cccc2cc(Cn3nc(C#C[C@@H](C)O)c4c(N)ncnc43)n(C3CC3)c(=O)c12`: the IC50 was more than 10 µM in assay [1], 100 to 1000 nM in assay [2] and 0.1 to 1 µM in assay [3].
For `Cc1cccc2cc(C(C)Nc3ncnc4[nH]cnc34)n(-c3c(F)cccc3F)c(=O)c12` (stereo not drawn), the IC50 was more than 10 µM in assay [1], 100 to 1000 nM in assay [2], less than 100 nM in assay [4] and more than 10 µM in assay [3].
Consider `Cc1cccnc1-n1c(Cn2nc(-c3cccc(O)c3)c3c(N)ncnc32)cc2cccc(C)c2c1=O`, for which the IC50 in assay [1] is more than 10 µM; in assay [2], 100 to 1000 nM; in assay [3], more than 10 µM.
On to `Cc1cccc2cc(C(C)Nc3ncnc4[nH]cnc34)n(-c3cc(F)cc(F)c3)c(=O)c12` (stereo not drawn), for which the IC50 in assay [1] was more than 10 µM; in assay [2], 100 to 1000 nM; in assay [4] it was less than 100 nM; in assay [3] it was more than 10 µM.
Turning to `Cc1cccc2cc(Cn3nc(C#CCO)c4c(N)ncnc43)n(-c3ccccc3F)c(=O)c12`, the IC50 in assay [1] was more than 10 µM; in assay [2] it was 100 to 1000 nM; in assay [3], more than 10 µM.
In the case of `Cc1cccnc1-n1c(Cn2nc(-c3cc(O)cc(F)c3)c3c(N)ncnc32)cc2ccccc2c1=O`, the IC50 in assay [1] was more than 10 µM; in assay [2], 100 to 1000 nM; in assay [3], more than 10 µM.
Take `Cc1cccc2cc(Cn3nc(C#C[C@@H](C)O)c4c(N)ncnc43)n(-c3ccccc3Cl)c(=O)c12`: the IC50 in assay [1] is more than 10 µM; in assay [2], 100 to 1000 nM; in assay [3], more than 10 µM.
With `Cc1ccccc1-n1c(Cn2nc(-c3cnn(C)c3)c3c(N)ncnc32)cc2cccc(C)c2c1=O`, the IC50 in assay [1] was more than 10 µM; in assay [2], 100 to 1000 nM; in assay [3], more than 10 µM.
For the molecule `Cc1ccccc1-n1c(Cn2nc(I)c3c(N)nccc32)cc2cccc(C)c2c1=O`, the figures for the IC50 in assay [1], in assay [2] and in assay [3] were more than 10 µM, 100 to 1000 nM and more than 10 µM, respectively.
As to `COc1ccccc1-n1c(Cn2nc(C#C[C@@H](C)O)c3c(N)ncnc32)cc2cccc(C)c2c1=O`, the figures for the IC50 in assay [1], in assay [2] and in assay [3] were more than 10 µM, 100 to 1000 nM and more than 10 µM, respectively.
In the case of `Cc1ccccc1-n1c(Cn2nc(C=CC(=O)N3CCOCC3)c3c(N)ncnc32)cc2cccc(C)c2c1=O`, the IC50 in assay [1] was more than 10 µM; in assay [2] it was more than 10000 nM; in assay [4] it was 100 to 1000 nM; in assay [3] it was more than 10 µM.
Take `COc1cc(-c2nn(Cc3cc4cccc(C)c4c(=O)n3-c3ccccc3F)c3ncnc(N)c23)ccc1Cl`: the figures for the IC50 in assay [1], in assay [2] and in assay [3] were more than 10 µM, 100 to 1000 nM and more than 10 µM, respectively.
In the case of `CC(=O)Nc1nc2cc(-c3nn(Cc4cc5cccc(C)c5c(=O)n4-c4ccccc4)c4ncnc(N)c34)ccc2s1`, the IC50 in assay [1] is more than 10 µM; in assay [2] it was 100 to 1000 nM; in assay [4], 100 to 1000 nM; in assay [3], more than 10 µM.
With `Cc1ccccc1-n1c(Cn2nc(-c3cnn(CCO)c3)c3c(N)ncnc32)cc2cccc(C)c2c1=O`, the IC50 in assay [1] is more than 10 µM; in assay [2] it was 100 to 1000 nM; in assay [3], more than 10 µM.
For `Cc1cccc2cc([C@H](C)Nc3ncnc4ccccc34)n(-c3ccccc3)c(=O)c12`, the IC50 in assay [1] was more than 10 µM; in assay [2] it was 100 to 1000 nM; in assay [4], less than 100 nM; in assay [3], more than 10 µM.
As to `Cc1cccc2cc(Cn3nc(C#C[C@@H](C)O)c4c(N)ncnc43)n(-c3ccccc3F)c(=O)c12`, the results for the IC50 in assay [1], in assay [2] and in assay [3] were more than 10 µM, 100 to 1000 nM and more than 10 µM, respectively.
`Cc1cccc2cc(Cn3nc(-c4cnn(CCO)c4)c4c(N)ncnc43)n(-c3ccccc3F)c(=O)c12`: the IC50 in assay [1] was more than 10 µM; in assay [2], 100 to 1000 nM; in assay [3], more than 10 µM.
In the case of `Cc1ccccc1-n1c(Cn2nc(-c3ccc(F)cc3)c3c(N)ncnc32)cc2cccc(C)c2c1=O`, the IC50 was more than 10 µM in assay [1], 100 to 1000 nM in assay [2] and more than 10 µM in assay [3].
For the molecule `Cc1ccccc1-n1c(Cn2nc(-c3cccc(Cl)c3)c3c(N)ncnc32)cc2cccc(C)c2c1=O`, the IC50 in assay [1] was more than 10 µM; in assay [2] it was 100 to 1000 nM; in assay [3] it was more than 10 µM.
